# Data taken from patent US20240360177A1, “PEPTIDES WITH ANTIMICROBIAL ACTIVITIES” (priority 2021, published 2024).
# Like-named read-outs stand apart in the source and are kept apart here. Non-standard residues stand in square brackets, D forms with d. Residues, ends and D or L forms follow the SMILES beside them. hArg = N=C(N)NCCCC[C@H](N)C(=O)O; Ahp = NCCCCCCC(=O)O; Ava = NCCCCC(=O)O
# Legend:
# C. albicans [1] = tested on: C. albicans
# [2] = tested on: Microsporum gypseum ATCC 14683; conditions: 4-6 days
# C. tropicalis [3] = tested on: C. tropicalis
# C. neoformans [4] = conditions: ATCC 90112; 72 hrs
# C. glabrata [5] = tested on: C. glabrata
# C. auris [6] = tested on: C. auris
# C. parapsilosis [7] = tested on: C. parapsilosis
# C. krusei [8] = tested on: C. krusei
# [9] = tested on: Trichophyton rubrum ATCC MYA-4438; conditions: 4-6 days
# human red blood cells = type: cell-based; conditions: PBS, 37° C., 1 hr
# Description: Hemolysis is a liability for many other cationic peptides which prevented their utility to treat systemic infections. The hemolytic potential of the peptides was tested using red blood cells collected from fresh human blood after centrifugation at room temperature and washed in phosphate buffered saline (pH 7.4) three times and then incubated in phosphate buffered saline (PBS) at 37° C. for 1 hr with the peptides at concentrations of 3-300 μg/mL. Triton-X100 was used as the positive control while the vehicle (PBS) was used as the negative control. Amphotericin B and melittin, both known to be hemolytic were used as reference compounds. Following incubation, the mixture was centrifuged at room temperature, and the supernatant was separated and analyzed for light absorbance at a single wavelength of 410 nm. The background absorbance reading from the negative control was subtracted from all samples. The Triton-X-100 sample was used to represent 100% lysis. All test compound and positive control samples were normalized to this value to determine the percent lysis caused by the test compounds and the positive controls at each concentration.
# [10] = tested on: Epidermophyton floccosum ATCC 52066; conditions: 4-6 days
# Scedosporium spp. = conditions: N = 2 strains; 72 hrs
# C. gattii [11] = tested on: C. gattii
# HepG2 cells [12] = tested on: HepG2 cells
# C. dubliniensis [13] = conditions: ATCC MYA-578; 24 hrs
# C. gattii [14] = assay: microbe, parasite or virus in culture; conditions: Cryptococcus gattii, 72 h, read-out: MIC C. gattii
# C. glabrata [15] = assay: microbe, parasite or virus in culture; conditions: Nakaseomyces glabratus, ATCC90030, 24 h, read-out: MIC C. glabrata
# [16] = tested on: Microsporum gypseum ATCC 14683; assay: microbe, parasite or virus in culture; conditions: Nannizzia gypsea, ATCC14683, read-out: MIC Microsporum gypseum
# C. auris [17] = assay: microbe, parasite or virus in culture; conditions: Candidozyma auris, 24 h, read-out: MIC C. auris
# C. krusei [18] = assay: microbe, parasite or virus in culture; conditions: Pichia kudriavzevii, 24 h, read-out: MIC C. krusei
# C. dubliniensis [19] = assay: microbe, parasite or virus in culture; conditions: Candida dubliniensis, 24 h, read-out: MIC C. dubliniensis
# C. tropicalis [20] = assay: microbe, parasite or virus in culture; conditions: Candida tropicalis, ATCC90874, 24 h, read-out: MIC C. tropicalis
# [21] = tested on: Epidermophyton floccosum ATCC 52066; assay: microbe, parasite or virus in culture; conditions: ATCC52066, read-out: MIC Epidermophyton floccosum
# C. parapsilosis [22] = assay: microbe, parasite or virus in culture; conditions: Lodderomyces parapsilosis, ATCC22019, 24 h, read-out: MIC C. parapsilosis
# C. neoformans [23] = assay: microbe, parasite or virus in culture; conditions: Cryptococcus neoformans, ATCC90112, 72 h, read-out: MIC C. neoformans
# [24] = tested on: Trichophyton rubrum ATCC MYA-4438; assay: microbe, parasite or virus in culture; conditions: read-out: MIC Trichophyton rubrum
# C. albicans [25] = assay: microbe, parasite or virus in culture; conditions: Candida albicans, ATCC90028, 24 h, read-out: MIC C. albicans
# [26] = tested on: Mycobacterium smegmatis ATCC 700084; type: cell-based; conditions: ATCC 700084, 48 h
# [27] = tested on: Escherichia coli ATCC 25922; type: cell-based
# [28] = tested on: Salmonella senftenberg CDC 127; type: cell-based
# [29] = tested on: Shigella sonnei MMX 10772; assay: Antibacterial broth microdilution MIC, Shigella sonnei; type: cell-based; conditions: CAMHB
# [30] = tested on: Staphylococcus aureus ATCC 29213; type: cell-based
# [31] = tested on: Klebsiella pneumoniae ATCC 13883; type: cell-based
# [32] = tested on: Enterococcus faecium ATCC 700221; conditions: CAMHB
# [33] = tested on: Pseudomonas aeruginosa ATCC 27853; type: cell-based
# [34] = Cytotoxicity in HepG2 cells, intracellular ATP assay; conditions: human, EC50 cytotoxicity in HepG2, intracellular ATP assay, Table 16; 18-22 hrs exposure without FBS
# Candida spp. = conditions: 15 strains (Table 10)
# HepG2 cells [35] = assay: Cytotoxicity in HepG2 cells, intracellular ATP assay; conditions: Homo sapiens, HepG2, read-out: EC50 in HepG2 ATP assay, internal control, range across studies
structure (smiles),measurement,setting,value
"C[C@@H]1[C@H](O)[C@@H](C)/C=C/C=C/C=C/C=C/C=C/C=C/C=C/[C@H](O[C@@H]2O[C@H](C)[C@@H](O)[C@H](N)[C@@H]2O)C[C@@H]2O[C@](O)(C[C@@H](O)C[C@@H](O)[C@H](O)CC[C@@H](O)C[C@@H](O)CC(=O)O[C@H]1C)C[C@H](O)[C@H]2C(=O)O [AMB, amphotericin B, reference compound]",MIC C. albicans,"C. albicans [1]; ATCC 90028 or 90029, 24 hrs",0.5 µg/mL
same,MIC Microsporum gypseum,[2],0.5 µg/mL
same,MIC Range Fusarium spp.,"Fusarium spp.; N = 3 strains, 48 hrs",1 µg/mL
same,MIC C. tropicalis,"C. tropicalis [3]; ATCC 90874, 24 hrs",0.5 µg/mL
same,MIC C. neoformans,C. neoformans [4],0.25 µg/mL
same,MIC C. glabrata,"C. glabrata [5]; ATCC 90030, 24 hrs",0.5 µg/mL
same,MIC C. auris,"C. auris [6]; CDC 386, 24 hrs",1 µg/mL
same,MIC C. parapsilosis,"C. parapsilosis [7]; ATCC 22019, 24 hrs",0.25 µg/mL
same,MIC C. krusei,"C. krusei [8]; MMX 7135, 24 hrs",0.5 µg/mL
same,MIC Trichophyton rubrum,[9],≤0.06 µg/mL
same,EC50 hemolysis (50% lysis),human red blood cells,6.95 µg/mL
same,MIC Epidermophyton floccosum,[10],0.12 µg/mL
same,MIC Range Scedosporium spp.,Scedosporium spp.,1 to 2 µg/mL
same,MIC C. gattii,"C. gattii [11]; ATCC MYA-4093, 72 hrs",0.5 µg/mL
same,"EC50 cytotoxicity in HepG2, positive controls across studies",HepG2 cells [12],5.79 to 14.13 µg/mL
same,MIC C. dubliniensis,C. dubliniensis [13],0.25 µg/mL
"OC(Cn1cncn1)(Cn1cncn1)c1ccc(F)cc1F [FLC, fluconazole]",MIC,C. gattii [14],8 µg/mL
same,MIC Range Fusarium spp.,"Fusarium spp.; N = 3 strains, 48 hrs",>32 µg/mL
same,MIC,C. glabrata [15],4 µg/mL
same,MIC,[16],2 µg/mL
same,MIC,C. auris [17],> 32 µg/mL
same,MIC,C. krusei [18],8 µg/mL
same,MIC,C. dubliniensis [19],0.5 µg/mL
same,MIC,C. tropicalis [20],0.25 µg/mL
same,MIC,[21],1 µg/mL
same,MIC,C. parapsilosis [22],2 µg/mL
same,MIC,C. neoformans [23],4 µg/mL
same,MIC,[24],0.5 µg/mL
same,MIC,C. albicans [25],0.25 µg/mL
"N=C(N)NCCC[C@H](NC(=O)[C@@H](CCCNC(=N)N)NC(=O)[C@H](CCCNC(=N)N)NC(=O)[C@@H](CCCNC(=N)N)NC(=O)CCCCNC(=O)[C@H](CCCNC(=N)N)NC(=O)[C@@H](CCCNC(=N)N)NC(=O)[C@H](CCCNC(=N)N)NC(=O)[C@@H](CCCNC(=N)N)NC(=O)CCCCNC(=O)[C@@H](CCCNC(=N)N)NC(=O)[C@H](CCCNC(=N)N)NC(=O)[C@@H](CCCNC(=N)N)NC(=O)CCCCCCNC(=O)[C@@H](CCCNC(=N)N)NC(=O)[C@H](CCCNC(=N)N)NC(=O)[C@@H](CCCNC(=N)N)NC(=O)[C@@H](N)CS)C(=O)O [SEQ ID NO: 6, Cys-rRr-(Ahp)-rRr-(Ava)-rRrR-(Ava)-rRrR] (H-C[dR]R[dR][Ahp][dR]R[dR][Ava][dR]R[dR]R[Ava][dR]R[dR]R-OH)",MIC C. albicans,C. albicans [1]; 24 h,8 µg/mL
same,MIC Mycobacterium smegmatis,[26],1 µg/mL
same,MIC Escherichia coli,[27],16 µg/mL
same,MIC Salmonella senftenberg,[28],16 µg/mL
same,MIC Range Fusarium spp.,Fusarium spp.; 48 h,0.25 to 0.5 µg/mL
same,MIC C. tropicalis,C. tropicalis [3]; 24 h,1 µg/mL
same,MIC Shigella sonnei,[29],16 µg/mL
same,MIC C. glabrata,C. glabrata [5]; 24 h,0.5 µg/mL
same,MIC Staphylococcus aureus,[30],8 µg/mL
same,MIC C. auris,C. auris [6]; 24 h,4 µg/mL
same,MIC C. parapsilosis,C. parapsilosis [7]; 24 h,2 µg/mL
same,MIC C. krusei,C. krusei [8]; 24 h,8 µg/mL
same,MIC Klebsiella pneumoniae,[31],16 µg/mL
same,MIC Enterococcus faecium,[32],16 µg/mL
same,MIC Pseudomonas aeruginosa,[33],16 µg/mL
same,MIC C. gattii,C. gattii [11]; 72 h,1 µg/mL
"N=C(N)NCCCC[C@H](NC(=O)[C@@H](CCCNC(=N)N)NC(=O)[C@H](CCCCNC(=N)N)NC(=O)[C@@H](CCCNC(=N)N)NC(=O)[C@@H]1CCCN1C(=O)[C@H](CCCCNC(=N)N)NC(=O)[C@@H](CCCNC(=N)N)NC(=O)[C@H](CCCCNC(=N)N)NC(=O)[C@@H](CCCNC(=N)N)NC(=O)[C@@H]1CCCN1C(=O)[C@@H](CCCNC(=N)N)NC(=O)[C@H](CCCCNC(=N)N)NC(=O)[C@@H](CCCNC(=N)N)NC(=O)[C@@H]1CCCN1C(=O)[C@@H](CCCNC(=N)N)NC(=O)[C@H](CCCCNC(=N)N)NC(=O)[C@H](N)CCCNC(=N)N)C(N)=O [SEQ ID NO: 88, r(Har)r-P-r(Har)r-P-r(Har)r(Har)-P-r(Har)r(Har)-NH2] (H-[dR][hArg][dR]P[dR][hArg][dR]P[dR][hArg][dR][hArg]P[dR][hArg][dR][hArg]-NH2)",EC50,[34],> 300 µg/mL
same,MIC C. albicans,"C. albicans [1]; ATCC 90028 or 90029, 24 hrs",0.5 µg/mL
same,MIC C. tropicalis,"C. tropicalis [3]; ATCC 90874, 24 hrs",0.5 µg/mL
same,MIC C. neoformans,C. neoformans [4],0.5 µg/mL
same,MIC C. glabrata,"C. glabrata [5]; ATCC 90030, 24 hrs",0.5 µg/mL
same,MIC C. auris,"C. auris [6]; CDC 386, 24 hrs",0.5 µg/mL
same,MIC C. parapsilosis,"C. parapsilosis [7]; ATCC 22019, 24 hrs",0.25 µg/mL
same,MIC50 Candida species,Candida spp.,0.5 µg/mL
same,MIC90 Candida species,Candida spp.,1 µg/mL
same,MIC C. krusei,"C. krusei [8]; MMX 7135, 24 hrs",0.5 µg/mL
same,MIC C. gattii,"C. gattii [11]; ATCC MYA-4093, 72 hrs",0.5 µg/mL
same,MIC C. dubliniensis,C. dubliniensis [13],0.5 µg/mL
"C=C(C)[C@H]1Cc2c(ccc3c2O[C@@H]2COc4cc(OC)c(OC)cc4[C@@H]2C3=O)O1 [rotenone, reference compound]",EC50,HepG2 cells [35],129 to 594 nM
